Assay results taken from ChEMBL document CHEMBL5303573, “Mapping human microbiome drug metabolism by gut bacteria and their genes” (Nature, 2019).

Columns and labels:
[1] = The drug is tested on Ruminococcus gnavus strain: ATCC29149 for biotransformation. The drug concentrations were measured before and after a 12-h incubation by liquid-chromatography-coupled mass spectrometry (LC–MS); conditions: mediterraneibacter gnavus, 2 µM
[2] = The drug is tested on Clostridium ramosum strain: DSM1402 for biotransformation. The drug concentrations were measured before and after a 12-h incubation by liquid-chromatography-coupled mass spectrometry (LC–MS); conditions: thomasclavelia ramosa, 2 µM
[3] = The drug is tested on Bacteroides coprophilus strain: DSM18228 for biotransformation. The drug concentrations were measured before and after a 12-h incubation by liquid-chromatography-coupled mass spectrometry (LC–MS); conditions: 2 µM
[4] = The drug is tested on Providencia stuartii strain: ATCC25827 for biotransformation. The drug concentrations were measured before and after a 12-h incubation by liquid-chromatography-coupled mass spectrometry (LC–MS); conditions: 2 µM
[5] = The drug is tested on Enterococcus faecalis strain: V583 for biotransformation. The drug concentrations were measured before and after a 12-h incubation by liquid-chromatography-coupled mass spectrometry (LC–MS); conditions: 2 µM
[6] = The drug is tested on Clostridium scindens strain: ATCC35704 for biotransformation. The drug concentrations were measured before and after a 12-h incubation by liquid-chromatography-coupled mass spectrometry (LC–MS); conditions: 2 µM
[7] = The drug is tested on Bacteroides fragilis strain: ATCC43859 for biotransformation. The drug concentrations were measured before and after a 12-h incubation by liquid-chromatography-coupled mass spectrometry (LC–MS); conditions: 2 µM
[8] = bacteroides fragilis, 12 h, 2 µM
Description: The drug is tested on Bacteroides fragilis strain: NCTC 9343 for biotransformation. The drug concentrations were measured before and after a 12-h incubation by liquid-chromatography-coupled mass spectrometry (LC–MS)

[9] = bacteroides thetaiotaomicron, 12 h, 2 µM
Description: The drug is tested on Bacteroides thetaiotaomicron strain: 3731 for biotransformation. The drug concentrations were measured before and after a 12-h incubation by liquid-chromatography-coupled mass spectrometry (LC–MS)

[10] = The drug is tested on Eubacterium hallii strain: DSM3353 for biotransformation. The drug concentrations were measured before and after a 12-h incubation by liquid-chromatography-coupled mass spectrometry (LC–MS); conditions: anaerobutyricum hallii, 2 µM
[11] = bifidobacterium adolescentis, 12 h, 2 µM
Description: The drug is tested on Bifidobacterium adolescentis strain: ATCC 15703 for biotransformation. The drug concentrations were measured before and after a 12-h incubation by liquid-chromatography-coupled mass spectrometry (LC–MS)

[12] = The drug is tested on Collinsella aerofaciens strain: ATCC25986 for biotransformation. The drug concentrations were measured before and after a 12-h incubation by liquid-chromatography-coupled mass spectrometry (LC–MS); conditions: 2 µM
[13] = The drug is tested on Escherichia coli strain: BW25113 for biotransformation. The drug concentrations were measured before and after a 12-h incubation by liquid-chromatography-coupled mass spectrometry (LC–MS); conditions: 2 µM
[14] = The drug is tested on Ruminococcus lactaris strain: ATCC29176 for biotransformation. The drug concentrations were measured before and after a 12-h incubation by liquid-chromatography-coupled mass spectrometry (LC–MS); conditions: 2 µM
[15] = The drug is tested on Clostridium sporogenes strain: ATCC15579 for biotransformation. The drug concentrations were measured before and after a 12-h incubation by liquid-chromatography-coupled mass spectrometry (LC–MS); conditions: 2 µM
[16] = The drug is tested on Parabacteroides merdae strain: ATCC43184 for biotransformation. The drug concentrations were measured before and after a 12-h incubation by liquid-chromatography-coupled mass spectrometry (LC–MS); conditions: 2 µM
[17] = The drug is tested on Eubacterium ventriosum strain: ATCC27560 for biotransformation. The drug concentrations were measured before and after a 12-h incubation by liquid-chromatography-coupled mass spectrometry (LC–MS); type: ADME; set-up: dose 2 uM, timepoint 0 vs 12 hours; conditions: 2 µM
[18] = enterocloster bolteae, 12 h, 2 µM
Description: The drug is tested on Clostridium bolteae strain: ATCCBAA-613 for biotransformation. The drug concentrations were measured before and after a 12-h incubation by liquid-chromatography-coupled mass spectrometry (LC–MS)

[19] = parabacteroides johnsonii, 12 h, 2 µM
Description: The drug is tested on Parabacteroides johnsonii strain: DSM18315 for biotransformation. The drug concentrations were measured before and after a 12-h incubation by liquid-chromatography-coupled mass spectrometry (LC–MS)

Row | Structure (SMILES) | Bacterial Biotransformation [1] | Bacterial Biotransformation [2] | Bacterial Biotransformation [3] | Bacterial Biotransformation [4] | Bacterial Biotransformation [5] | Bacterial Biotransformation [6] | Bacterial Biotransformation [7] | Bacterial Biotransformation [8] | Bacterial Biotransformation [9] | Bacterial Biotransformation [10] | Bacterial Biotransformation [11] | Bacterial Biotransformation [12] | Bacterial Biotransformation [13] | Bacterial Biotransformation [14] | Bacterial Biotransformation [15] | Bacterial Biotransformation [16] | Bacterial Biotransformation [17] | Bacterial Biotransformation [18] | Bacterial Biotransformation [19]
1 | CN(C)CC(c1ccc(O)cc1)C1(O)CCCCC1.O=C(O)CCC(=O)O (configuration not stated) [DESVENLAFAXINE SUCCINATE] | Compound NOT metabolized | Compound NOT metabolized | Compound NOT metabolized | Compound NOT metabolized | Compound NOT metabolized | Compound NOT metabolized | Compound NOT metabolized | Compound NOT metabolized | Compound NOT metabolized | Compound NOT metabolized | Compound NOT metabolized | Compound NOT metabolized | Compound NOT metabolized | Compound NOT metabolized | Compound NOT metabolized | Compound NOT metabolized | Compound NOT metabolized | Compound NOT metabolized | –
2 | CC(CCc1ccccc1)NCC(O)c1ccc(O)c(C(N)=O)c1 (configuration not stated) [LABETALOL] | Compound NOT metabolized | Compound NOT metabolized | Compound NOT metabolized | Compound NOT metabolized | Compound NOT metabolized | – | Compound NOT metabolized | Compound NOT metabolized | Compound NOT metabolized | Compound NOT metabolized | Compound NOT metabolized | Compound NOT metabolized | Compound NOT metabolized | Compound NOT metabolized | Compound NOT metabolized | Compound NOT metabolized | Compound NOT metabolized | Compound NOT metabolized | Compound NOT metabolized
3 | CN1CCc2c(c3ccccc3n2Cc2ccccc2)C1.CN1CCc2c(c3ccccc3n2Cc2ccccc2)C1.O=S(=O)(O)c1cccc2c(S(=O)(=O)O)cccc12 | Compound NOT metabolized | Compound NOT metabolized | Compound NOT metabolized | Compound NOT metabolized | Compound NOT metabolized | Compound NOT metabolized | Compound NOT metabolized | Compound NOT metabolized | Compound NOT metabolized | Compound NOT metabolized | Compound NOT metabolized | Compound NOT metabolized | Compound NOT metabolized | – | Compound NOT metabolized | Compound NOT metabolized | Compound NOT metabolized | Compound NOT metabolized | Compound NOT metabolized
4 | COCCc1ccc(OCC(O)CNC(C)C)cc1.COCCc1ccc(OCC(O)CNC(C)C)cc1.O=C(O)C(O)C(O)C(=O)O (configuration not stated) [METOPROLOL TARTRATE] | Compound NOT metabolized | Compound NOT metabolized | Compound NOT metabolized | Compound NOT metabolized | Compound NOT metabolized | Compound NOT metabolized | Compound metabolized | Compound NOT metabolized | – | Compound NOT metabolized | Compound NOT metabolized | Compound NOT metabolized | Compound NOT metabolized | Compound NOT metabolized | Compound NOT metabolized | Compound NOT metabolized | Compound NOT metabolized | Compound NOT metabolized | Compound NOT metabolized
